Entries after “also recorded” stand apart in the source; their conditions may differ.
What was measured:
NIH/3T3 cell line [1] = assay: Alamar blue viability assay in NIH/3T3 cells; format: cell-based, mouse; conditions: 0.31-5 μM ML228, 48 hours, p<0.0001
Protocol: Embryonic mouse fibroblast NIH/3T3 cell line (ATCC) were seeded at a concentration of 50*10^3 cells/well on 96 well glass bottom plate (P96-1.5H-N, Cellvis) for the immunofluorescence experiment and on cell culture microplate, 96 well, PS, F-Bottom (655090, greiner) for the viability experiment. The cells were cultured with Dulbecco's modified Eagle's medium (DMEM) supplemented with 10% fetal calf serum, 1% Penicillin-Streptomycin solution and 1% L-glutamine (All purchased from Rhenium). At 24 hours post seeding, cells were treated for another 48 hours by replacing them with the cell medium supplemented with a serial dilution (5-0.02 μM, factor dilution of 2) of the ML228, Daprodustat, Enarodustat, Molidustat, Vadadustat or Roxadustat molecules dissolved in DMSO. The final DMSO concentration in the cell medium was 0.01%. […]
For the ML228 experiment, at 48 hours post treatment, cells were stained by replacing the cell medium with Alamar blue (Enco, Petach Tikvah, Israel) diluted 1:10 in the cell medium, and incubated for 4 hours (37° C., 5% CO2). Then, fluorescence readouts were obtained using the Spark multimode microplate reader (Tecan) at excitation/emission 540±20 nm/590±20 nm. Cell viability was calculated as the percentage difference of treated cells with ML228 relative to the control cells at 590±20 nm emission.

MG-63 osteoblasts = assay: Collagen-I immunofluorescence in MG-63 osteoblasts treated with ML228; format: cell-based, human
Protocol: MG-63 human osteosarcoma cell lines were obtained from the American Type Culture Collection (ATCC, Manassas, VA, USA). Cells were cultured in α-MEM supplemented with 10% FCS, 100 U/ml penicillin, and […] streptomycin at 37° C. in a humidified atmosphere incubator containing 5% CO2. Before treatment with ML228, 5,000 and 50,000 cells/well were seeded in a 96 or 24 well-plate, respectively.
Cells were cultured to sub-confluence on a 96-well plate culture plate or on round-glass cover slips in a 24 well plate and incubated with ML228 at 37° C. in 5% CO2 for 24-96 hours. […] Fluorescence readouts were obtained with excitation/emission (ex/em) of 495/519 nanometer (nm; green) and 340/488 nm (blue) (for FIGS. 2B and 2D); or with ex/em of 358/461 nm (blue), 495/519 nm (green) and 652/668 nm (red) (for FIG. 5A).
All images were analyzed with the computer-based image analysis system (Image J) using the Fiji 2 software (National Institute of Health). Equal field areas were selected for analysis and quantification of fluorescence signals. Quantification of fluorescence signal intensity measured by color threshold and normalized against β-tubulin intensity. Total collagen was evaluated by total fluorescence area intensity.
The effect of ML228 (chemical structure thereof is depicted in FIG. 1), a known activator of HIF, on fibroblasts and osteoblasts was analyzed. […]

NIH/3T3 cell line [2] = assay: Cell confluence / number of cells per image in NIH/3T3 cells; format: cell-based, mouse; conditions: 0.63-5 μM ML228, 48 hours, p<0.0001
Protocol: Embryonic mouse fibroblast NIH/3T3 cell line (ATCC) were seeded at a concentration of 50*10^3 cells/well on 96 well glass bottom plate (P96-1.5H-N, Cellvis) for the immunofluorescence experiment and on cell culture microplate, 96 well, PS, F-Bottom (655090, greiner) for the viability experiment. The cells were cultured with Dulbecco's modified Eagle's medium (DMEM) supplemented with 10% fetal calf serum, 1% Penicillin-Streptomycin solution and 1% L-glutamine (All purchased from Rhenium). At 24 hours post seeding, cells were treated for another 48 hours by replacing them with the cell medium supplemented with a serial dilution (5-0.02 μM, factor dilution of 2) of the ML228, Daprodustat, Enarodustat, Molidustat, Vadadustat or Roxadustat molecules dissolved in DMSO. The final DMSO concentration in the cell medium was 0.01%. Cells were maintained in an incubator at 37° C. in a humidified atmosphere containing 5% CO2.
Image acquisition and quantification were performed by Incucyte SX5 (Sartorius) using software version 2022B Rev2. A standard scan was done for 9 images per well using 20× objective, 2 optical modules (green at excitation/emission of 453-485 nm/494-533 nm in 300 msec acquisition time, and near-IR at excitation/emission of 648-674 nm/685-756 nm in 400 msec acquisition time, including Phase channel) following immunofluorescence protocol. For the image analysis, 2-6 replicates per condition were used. Using the Basic Analyzer mode, “Phase Object Confluence (%)” was acquired using the Phase channel. This measurement is the percentage of the image area occupied by cells. “Total Collagen-I Integrated Intensity Per Image (GCU×μm^2/Image)” was acquired using the green optical module. GCU stands for Green calibrated Unit, while this measurement is the total sum of the Collagen-I objects' fluorescent intensity in the image. “#Cells (Per image)” was acquired by the near-IR optical module. This measurement was calculated by counting the number of nuclei per image.
Multiple comparisons were performed by ordinary one-way ANOVA followed by Dunnett's post-hoc statistical hypothesis for comparing each condition mean to the control mean. Statistical analysis was done using GraphPad Prism version 10.0.0 for Windows, GraphPad Software, Boston, Massachusetts USA, worldwideweb(dot)graphpad(dot)com. For statistical analysis, significance was set as (*) p≤0.05; (**) p≤0.01; (***) p≤0.001; (****) p≤0.0001 and (ns; not significant) p>0.05.

fibroblast cells = assay: live/dead viability assay, fibroblasts; format: cell-based; conditions: ML228 0.62 and 5 μM, 48 hours
Protocol: The live/dead viability assay (cat #04511-1KT-F Merck, Germany) was used according to the manufacturer's protocol. Briefly, cells were incubated in a medium supplemented with the indicated concentrations of ML228 for 48 hours. Fluorescein diacetate (6.6 μg/mL) and propidium iodide (5 μg/mL) (Merck, NJ, USA) were prepared in DMEM and added to the cells. Confocal images were captured after addition of the dyes with ZEISS LSM 900, Laser Scanning Microscope. Fluorescence readouts were obtained with ex/em of 490/515 nm and 535/617 nm for green and red, respectively. Cellular ATP levels were quantified using the cell-titer assay (Promega, WI, USA cat #G7570).

Q: Which “viability compared to untreated cells” value (NIH/3T3 cell line [1]) does the source give for `c1ccc(-c2ccc(CNc3nc(-c4ccccn4)nnc3-c3ccccc3)cc2)cc1` [ML228, N-([1,1′-Biphenyl]-4-ylmethyl)-6-phenyl-3-(2-pyridinyl)-1,2,4-triazin-5-amine] here?
A: lower viability

Q: And the “concentration of maximum enhancement of Collagen-I” value (MG-63 osteoblasts; MG-63, 48 hours, normalized to cell number (DAPI), FIG. 9B)?
A: 5 µM

Q: What about the “increase in collagen levels compared to non-treated cells” value (MG-63 osteoblasts; osteoblasts (MG-63), variable ML228 concentrations, 48 hours) of the same compound?
A: more than a three-fold increase; also recorded: increased

Q: And the “cell confluence vs untreated cells” value (NIH/3T3 cell line [2])?
A: significant reduction

Q: What about the “cell death / cellular toxicity (live/dead assay)” value (fibroblast cells) of the same compound?
A: without imparting cellular toxicity; also recorded: without imparting cellular death; also recorded: not an increase in cell death

Source: US20250171821A1, “HIF-1 ACTIVATORS AND USES THEREOF” (Ramot at Tel-Aviv University Ltd., priority 2022, published 2025)
